Measured values as given in ChEMBL document CHEMBL3885881, “DrugMatrix”.

Species: Rattus norvegicus
Assay: DrugMatrix - Regimen: Daily Repeat
Assay type: toxicity, organism-based, Sprague-Dawley
Set-up: regimen Daily Repeat, gender Male, age 6-8 weeks
Settings: in vivo, po, route oral GAVAGE, vehicle .5 % CMC; for ABSOLUTE BASOPHIL / ABSOLUTE EOSINOPHIL / ABSOLUTE LYMPHOCYTE / ABSOLUTE MONOCYTE / ABSOLUTE SEGMENTED NEUTROPHIL / BASOPHIL / EOSINOPHIL / ERYTHROCYTE COUNT / HEMATOCRIT / HEMOGLOBIN / LEUKOCYTE COUNT / LYMPHOCYTE / MEAN CORPUSCULAR HEMOGLOBIN / MEAN CORPUSCULAR HEMOGLOBIN CONCENTRATION / MEAN CORPUSCULAR VOLUME / MONOCYTE / NEUTROPHIL / NUCLEATED RED BLOOD CELLS / PLATELET COUNT: tissue Blood; for ALANINE AMINOTRANSFERASE / ALBUMIN / ALKALINE PHOSPHATASE / ASPARTATE AMINOTRANSFERASE / BLOOD UREA NITROGEN / CARBON DIOXIDE / CHLORIDE / CHOLESTEROL / CREATINE PHOSPHOKINASE / CREATININE / GLUCOSE / LACTATE DEHYDROGENASE / LIPASE / PHOSPHORUS / POTASSIUM / SODIUM / TOTAL BILIRUBIN / TOTAL PROTEIN / URIC ACID: tissue Plasma
[1] = 47 mg/kg, 120 h, dose level High, time 5 day
[2] = […], 72 h, dose 3.6 mg/Kg, dose level Low, time 3 day
[3] = […], 120 h, dose 3.6 mg/Kg, dose level Low, time 5 day

## CN(C)C(=O)C(CCN1CCC(O)(c2ccc(Cl)cc2)CC1)(c1ccccc1)c1ccccc1 [LOPERAMIDE]
[1]
  ABSOLUTE BASOPHIL: 0 CELLS/uL
  ABSOLUTE EOSINOPHIL: 31.33 CELLS/uL
  ABSOLUTE LYMPHOCYTE: 6903.67 CELLS/uL
  ABSOLUTE MONOCYTE: 106 CELLS/uL
  ABSOLUTE SEGMENTED NEUTROPHIL: 859 CELLS/uL
  BASOPHIL: 0%
  EOSINOPHIL: 0.33%
  ERYTHROCYTE COUNT: 5.64 x10E6/uL
  HEMATOCRIT: 35.1%
  HEMOGLOBIN: 14.03 G/DL
  LEUKOCYTE COUNT: 7.9 x10E3/uL
  LYMPHOCYTE: 87.67%
  MEAN CORPUSCULAR HEMOGLOBIN: 24.93 pg
  MEAN CORPUSCULAR HEMOGLOBIN CONCENTRATION: 40 G/DL
  MEAN CORPUSCULAR VOLUME: 62.3 fL
  MONOCYTE: 1.33%
  NEUTROPHIL: 10.67%
  NUCLEATED RED BLOOD CELLS: 0 /100WBC
  PLATELET COUNT: 1406.33 x10E3/uL
  ALANINE AMINOTRANSFERASE: 93.33 u/L
  ALBUMIN: 4.4 G/DL
  ALKALINE PHOSPHATASE: 365.33 u/L
  ASPARTATE AMINOTRANSFERASE: 91 u/L
  BLOOD UREA NITROGEN: 16 mg/dL
  CARBON DIOXIDE: 30.67 mmol/L
  CHLORIDE: 100.67 MEQ/L
  CHOLESTEROL: 58 mg/dL
  CREATINE PHOSPHOKINASE: 208.67 u/L
  CREATININE: 0.14 mg/dL
  GLUCOSE: 162.67 mg/dL
  LACTATE DEHYDROGENASE: 118.33 u/L
  LIPASE: 7.67 u/L
  PHOSPHORUS: 10.77 mg/dL
  POTASSIUM: 4.92 MEQ/L
  SODIUM: 146.5 MEQ/L
  TOTAL BILIRUBIN: 0.17 mg/dL
  TOTAL PROTEIN: 6.07 G/DL
  URIC ACID: 0.83 mg/dL
[2]
  ABSOLUTE BASOPHIL: 0 CELLS/uL
  ABSOLUTE EOSINOPHIL: 192.67 CELLS/uL
  ABSOLUTE LYMPHOCYTE: 13020.33 CELLS/uL
  ABSOLUTE MONOCYTE: 102.67 CELLS/uL
  ABSOLUTE SEGMENTED NEUTROPHIL: 1651 CELLS/uL
  BASOPHIL: 0%
  EOSINOPHIL: 1.33%
  ERYTHROCYTE COUNT: 5.19 x10E6/uL
  HEMATOCRIT: 33.57%
  HEMOGLOBIN: 13.8 G/DL
  LEUKOCYTE COUNT: 14.97 x10E3/uL
  LYMPHOCYTE: 87%
  MEAN CORPUSCULAR HEMOGLOBIN: 26.63 pg
  MEAN CORPUSCULAR HEMOGLOBIN CONCENTRATION: 41.1 G/DL
  MEAN CORPUSCULAR VOLUME: 64.7 fL
  MONOCYTE: 0.67%
  NEUTROPHIL: 11%
  NUCLEATED RED BLOOD CELLS: 0 /100WBC
  PLATELET COUNT: 1302 x10E3/uL
  ALANINE AMINOTRANSFERASE: 64.33 u/L
  ALBUMIN: 4.2 G/DL
  ALKALINE PHOSPHATASE: 426 u/L
  ASPARTATE AMINOTRANSFERASE: 86 u/L
  BLOOD UREA NITROGEN: 16 mg/dL
  CARBON DIOXIDE: 27 mmol/L
  CHLORIDE: 102 MEQ/L
  CHOLESTEROL: 83.33 mg/dL
  CREATINE PHOSPHOKINASE: 331 u/L
  CREATININE: 0.14 mg/dL
  GLUCOSE: 168 mg/dL
  LACTATE DEHYDROGENASE: 198.33 u/L
  LIPASE: 10 u/L
  PHOSPHORUS: 11.93 mg/dL
  POTASSIUM: 5.72 MEQ/L
  SODIUM: 142.8 MEQ/L
  TOTAL BILIRUBIN: 0.13 mg/dL
  TOTAL PROTEIN: 5.63 G/DL
  URIC ACID: 1.23 mg/dL
[3]
  ABSOLUTE BASOPHIL: 0 CELLS/uL
  ABSOLUTE EOSINOPHIL: 0 CELLS/uL
  ABSOLUTE LYMPHOCYTE: 11205 CELLS/uL
  ABSOLUTE MONOCYTE: 32.67 CELLS/uL
  ABSOLUTE SEGMENTED NEUTROPHIL: 1129 CELLS/uL
  BASOPHIL: 0%
  EOSINOPHIL: 0%
  ERYTHROCYTE COUNT: 5.52 x10E6/uL
  HEMATOCRIT: 35.23%
  HEMOGLOBIN: 14.13 G/DL
  LEUKOCYTE COUNT: 12.37 x10E3/uL
  LYMPHOCYTE: 91%
  MEAN CORPUSCULAR HEMOGLOBIN: 25.63 pg
  MEAN CORPUSCULAR HEMOGLOBIN CONCENTRATION: 40.13 G/DL
  MEAN CORPUSCULAR VOLUME: 63.87 fL
  MONOCYTE: 0.33%
  NEUTROPHIL: 8.67%
  NUCLEATED RED BLOOD CELLS: 0 /100WBC
  PLATELET COUNT: 1068 x10E3/uL
  ALANINE AMINOTRANSFERASE: 58.33 u/L
  ALBUMIN: 4.3 G/DL
  ALKALINE PHOSPHATASE: 376 u/L
  ASPARTATE AMINOTRANSFERASE: 86.67 u/L
  BLOOD UREA NITROGEN: 13.67 mg/dL
  CARBON DIOXIDE: 33 mmol/L
  CHLORIDE: 101.67 MEQ/L
  CHOLESTEROL: 67.67 mg/dL
  CREATINE PHOSPHOKINASE: 233.67 u/L
  CREATININE: 0.2 mg/dL
  GLUCOSE: 140.33 mg/dL
  LACTATE DEHYDROGENASE: 157.33 u/L
  LIPASE: 9.67 u/L
  PHOSPHORUS: 12.57 mg/dL
  POTASSIUM: 6.47 MEQ/L
  SODIUM: 145.27 MEQ/L
  TOTAL BILIRUBIN: 0.2 mg/dL
  TOTAL PROTEIN: 6.07 G/DL
  URIC ACID: 1.23 mg/dL
